The test deals with ERK-2. The test is described as follows: Western blot analysis of treated cell lysates with ERK-2 antibody. To be noted: 2.5 and 5.0 μM, 48 hours; NIH3T3, LnCaP or MCF-7. The test is classed as cell-based. On the procedure: Cell lysates of FRI-20-treated cells were prepared for Western Blot analysis as follows. NIH3T3, LnCaP or MCF-7 cells were seeded at a density of 2×10^5 cells/per well in a six-well plate and allowed to grow for 24 hours. Fresh medium was added to each well 2 hours before treatment with FRI-20. The compound was dissolved in DMSO to make a 2 mM stock solution and added to the medium (2 ml) to obtain a final concentration of 2.5 and 5.0 μM. After 48 hours at 37° C., the cells were washed twice with 10 ml of ice cold phosphate-buffered saline and harvested in 400 μl of lysis buffer containing 25 mM HEPES (pH 7.6), 0.1% Triton X-100, 300 mM NaCl, 1.5 mM MgCl2, 20 mM β-glycerophosphate, 100 μM Na3VO4, 0.2 mM EDTA, 0.5 mM dithiothreitol, 2 μg/ml aprotinin, 2 μg/ml leupeptin, 100 μM […] and 1 mM benzamidine. The cell lysates were kept on ice for 30 minutes and centrifuged for 10 minutes in a microcentrifuge (16000 X g). The cell lysates were separated from the debris and normalized for protein content.
Western Blot analysis was carried out on the drug- and mock-treated cell lysates with ERK-2 antibody. Equal amounts of total protein (100 μg) were loaded in each lane of a SDS-PAGE gel (10-12%) and transferred to Immobilon-P (Millipore, USA). […] The antibody was detected using the ECL Western blotting analysis kit (Amersham) following the manufacturer's instructions.
On the technique in general: In western blotting, separated proteins are transferred to a membrane and probed.

This note sets out measurements from US6548553B2, “Styryl sulfone anticancer agents” (Temple University-of the Commonwealth System of Higher …, priority 1997, dated 2003).

In the case of `O=S(=O)(/C=C/c1ccc(F)cc1)Cc1ccc(Cl)cc1` [Example 11, E-4-fluorostyryl 4-chlorobenzyl Sulfone], the “amount of ERK-2 protein in drug- and mock-treated lysates” value was “the same amount of protein in both lysates”.
